Assay results taken from patent publication US4334066A (priority 1981, dated 1982).
Converted amounts (≈) assume the structure as drawn.

What was measured:
Type in all cases: cell-based
[1] = test system: Rice blast disease (Pyricularia oxyzae); assay: microbe, parasite or virus in culture; conditions: 48 h, read-out: Minimum Inhibitory Concentration
[2] = test system: Stem rot of eggplant (Sclerotinia Sclerotiorum); conditions: 48 h, test microorganism C, PDA medium, complete inhibition of mycelial growth, read 2 days later, read-out: Minimum Inhibitory Concentration
Excerpt: (§1) The test microorganisms employed are described below.
C . . . Stem rot of eggplant
(Sclerotinia Sclerotiorum)

[3] = test system: Gammy stem blight of melon (Mycosphaerella melonis); conditions: 48 h, test microorganism D, PDA medium, complete inhibition of mycelial growth, read 2 days later, read-out: Minimum Inhibitory Concentration
Excerpt: as §1
D . . . Gammy stem blight of melon

[4] = test system: Early blight of tomato (Alternaria solaui); conditions: 48 h, test microorganism E, PDA medium, complete inhibition of mycelial growth, read 2 days later, read-out: Minimum Inhibitory Concentration
Excerpt: as §1
E . . . Early blight of tomato

[5] = test system: Bacterial blight of rice (Xanthomonas oryzae); assay: microbe, parasite or virus in culture; conditions: 48 h, read-out: Minimum Inhibitory Concentration

| SMILES | MIC [1] [µg/mL] | MIC [2] [µg/mL] | MIC [3] [µg/mL] | MIC [4] [µg/mL] | MIC [5] [µg/mL] |
| --- | --- | --- | --- | --- | --- |
| CCC1OC(OC)C=C(CN2CCNCC2)C1=O (stereo not drawn) [Compound 1, 6-ethyl-2-methoxy-4-piperazinomethyl-5-oxo-5,6-dihydro-2H-pyran] | 100 (≈ 393 µM) | 100 (≈ 393 µM) | 100 (≈ 393 µM) | 200 (≈ 786 µM) | 12.5 (≈ 49.1 µM) |
| CCOC1C=C(CN2CCOCC2)C(=O)C(C(C)C)O1 (stereo not drawn) [Compound 2, 6-isopropyl-2-ethoxy-4-morpholinomethyl-5-oxo-5,6-dihydro-2H-pyran] | 100 (≈ 353 µM) | 100 (≈ 353 µM) | 100 (≈ 353 µM) | 200 (≈ 706 µM) | – |
